From patent US5739131A, “Benzene derivatives and pharmaceutical composition” (Kureha Chemical Industry Co., Ltd., priority 1994, dated 1998) come the findings set out here.

Structures are written as SMILES. Where two headings read alike, the source gives them in different places.

Series [1] has as its system kidney disease model rats. Put plainly: Action to survival time of kidney diseased animals. The format is in vivo, Sprague-Dawley female rats. The settings on record: 20 mg/kg/day per os, observation eight weeks (upper limit); control 5.0. As for the experimental part: The kidney disease model rats were prepared as in Example 115. Twenty-five groups (8 rats per group) were prepared in a manner so that there was no major difference between the groups in the serum creatinine value and the urea nitrogen value indicating renal function. The rats in each group were allowed to freely take up feed and water. […] To the rats in the control group, only water was forcedly administered per os every day. If kidney diseases are aggravated, the rat will die of uremia. Thus, the survival time was observed as comprehensive indication of the improvement effect on the kidney diseases. The observation period was eight weeks. Thus if all rats survived, the average survival time is eight weeks and it is an upper limit.

The target of series [2] is T1, angiotensin II receptor subtype 2 (AT2) (Bos taurus, UniProt G5E6F7).
T1 construct: receptor: from cerebellar cortex in bovine; from tissue; host or cells: bovine cerebellar cortex
T1 sequence (G5E6F7 1-362): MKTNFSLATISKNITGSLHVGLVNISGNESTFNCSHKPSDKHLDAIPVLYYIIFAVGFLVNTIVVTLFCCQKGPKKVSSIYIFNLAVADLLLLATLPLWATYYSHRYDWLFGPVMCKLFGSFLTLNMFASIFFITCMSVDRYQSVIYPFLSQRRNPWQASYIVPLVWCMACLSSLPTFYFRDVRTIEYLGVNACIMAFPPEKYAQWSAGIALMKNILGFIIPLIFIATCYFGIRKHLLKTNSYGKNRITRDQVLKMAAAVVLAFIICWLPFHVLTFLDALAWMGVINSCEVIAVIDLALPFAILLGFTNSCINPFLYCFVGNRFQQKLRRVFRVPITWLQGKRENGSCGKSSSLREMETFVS
Briefly: Binding assay, angiotensin II receptor subtype 2 (AT2). Further details: species or system bovine (cerebellar cortex). The settings on record: read-out: Binding inhibition % in 100 μm, AT2. As for the experimental part: (§1) In this Example, the affinity to the angiotensin II receptor subtype 1 or subtype 2 was evaluated by a binding assay in accordance with the method described in Biochem. Pharmacol., 33, 4057-4062 (1984).
(§2) Specifically, the measurement of the total binding in the presence of each drug was performed as follows:
(§3) A mixture (final volume=0.25 ml) of a drug in a given concentration (the drug was dissolved in DMSO, and diluted to a double volume with a buffer attached to a drug discovery system to prepare sample for the assay; 0.025 ml), a tracer (0.025 ml), and receptors (0.2 ml) was incubated [in the case of the angiotensin II receptor subtype 1 (AT1), at room temperature for 3 hours, and in the case of the subtype 2 (AT2), at 37° C. for 1 hour]. Then, the reaction mixture was filtered with suction (GF/C filter was used in AT1, and GF/B filter was used in AT2). The filter papers after filtration with suction (the tracer bound to the receptors) were counted by a γ-well counter (ARC-500, Aloka). The non-specific bindings were measured by repeating the above method, except that a large excess amount of a displacer was added. The specific binding of the drug in the given concentration was calculated by subtracting the non-specific binding from the total binding, respectively.
(§4) In AT1 and AT2, the percentages to inhibit the bindings of radioactive ligands (tracer) to receptors by the drugs to be tested (IC50 value of concentration to show 50% inhibition, or binding inhibition % in 100 μM) were measured, using the drugs to be tested and control drugs in the given concentration.
receptor: from cerebellar cortex in bovine
tracer: ^125 ITyr^4angiotensin II
control drug: angiotensin II (human)
(displacer): angiotensin II (human)

The test system of series [3] is kidney disease model rats. Put plainly: Action to depress blood pressure (tail cuff method). Format: in vivo, Sprague-Dawley female rats. The settings on record: systolic, average, 20 mg/kg per os, two days from administration; control (water) 203. Here is the method: The compounds of the present invention and the reference substance were forcedly administered per os to kidney disease model rats, and the action to depress blood pressure was observed. The kidney disease model rats were prepared by ligature of branches of renal artery in accordance with the conventional method, that is, the left hilum renalis of Sprague-Dawley female rats was exposed under anesthesia, and one of four secondary branches of renal artery was left unligated, while the remaining three branches were ligated, respectively. After a week, the hilum renalis (artery, vein, and ureter) of the right kidney were further ligated to thereby prepare the rats whose renal function was lowered to approximately 1/8 of the normal function. Each group consisted of eight rats. The drugs to be tested (20 mg/kg) were administered to each administering group, and only water was administered to control group. After two days from the administration, the systolic blood pressure was measured by the tail cuff method using a blood pressure measuring apparatus (UR5000; Ueda).

Series [4] relates to mice. Briefly: Acute toxicity, single oral dose. Format: in vivo. Here is the method:
Five-week-old ICR female mice (5 mice per group) were bred for acclimation for a week. Then, the compounds of the present invention were dissolved or dispersed in an aqueous solution of 0.5% methylcellulose, and orally administered to the mice in a single dosage (500 mg/kg).

The target of series [5] is T2, angiotensin II receptor subtype 1 (AT1) (Oryctolagus cuniculus, UniProt P34976).
T2 construct: receptor: from adrenal glands in rabbits; from tissue; host or cells: rabbit adrenal glands
T2 sequence (P34976 1-359): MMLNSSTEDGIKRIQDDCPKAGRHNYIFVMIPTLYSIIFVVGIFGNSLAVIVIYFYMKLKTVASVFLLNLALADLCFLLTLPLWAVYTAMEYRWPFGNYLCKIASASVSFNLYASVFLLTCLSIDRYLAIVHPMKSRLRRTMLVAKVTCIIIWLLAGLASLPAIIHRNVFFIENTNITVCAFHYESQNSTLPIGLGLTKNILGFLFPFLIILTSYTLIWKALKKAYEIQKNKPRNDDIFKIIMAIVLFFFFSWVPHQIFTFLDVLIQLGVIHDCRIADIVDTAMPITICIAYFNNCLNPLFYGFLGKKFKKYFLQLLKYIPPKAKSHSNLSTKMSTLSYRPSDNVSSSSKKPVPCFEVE
Put plainly: Binding assay, angiotensin II receptor subtype 1 (AT1). Further details: species or system rabbit (adrenal glands). The settings on record: for inhibition at 100 µM: AT1, rabbit adrenal glands. Here is the method:
as §1, §2, §3, §4

In series [6] the test system is kidney disease model rats. Briefly: Renal function indicatory value (action to kidney diseases). The format is in vivo, Sprague-Dawley female rats. The settings on record: 20 mg/kg/day per os, two weeks; for Creatinine clearance: 24 hours urine, control 0.20; for Creatinine / Urea nitrogen: serum; for Creatinine: control 2.0; for Urea nitrogen: control 100. Here is the method:
The kidney disease model rats were prepared as in Example 115. Twenty-five groups (8 rats per group) were sleeked in a manner so that there were no major differences between each group in the serum creatinine value and the urea nitrogen value indicating renal function. The rats in each group were allowed to freely take up feed and water. […] To the rats in the control group, only water was forcedly administered per os every day. After two weeks, 0.2 ml of blood was collected from the carotid artery of the rat under anesthesia, and centrifuged to obtain serum. Using 25 μl of the serum, serum creatinine (Scr) was measured by a creatinine analytical instrument (Beckman). Using 10 μl of the serum, urea nitrogen (BUN) was measured by a BUN analytical instrument (Beckman). Creatinine clearance was evaluated as follows:
After serum creatinine measurement, rats were placed in urinary metabolic cages for 24 hours to collect urine. Urinary creatine concentration (Ucr) was measured by a creatinine analytical instrument, and total volume of urination (Uvol) was also measured. Creatinine clearance (CCr) was calculated by the following formula: [formula]

Where [7] appears, read: 100 μM, AT2, bovine cerebellar cortex, 37° C. 1 hour.
Setting [8] is: tracer 3H angiotensin II, room temperature 3 hours, read-out: IC50 AT1.
Where [9] appears, read: mice, single oral 500 mg/kg, observed for 6 days, 5 per group.

In general, inhibition refers to the share of the control response that was lost under treatment. For the molecule `CCCCC(=O)N(Cc1ccc(C(=O)O)cc1)c1cc(C(=O)N2CCOCC2)ccc1C` [Compound No. 278, 4-methyl-3-N-[[4-(carboxyphenyl)methyl]valeramido]benzoic acid morpholide], the Average survival time in series [1] is recorded as 7.0 weeks. The inhibition at 100 µM in series [2] (setting [7]) was 0%. The Blood pressure in series [3] is listed as 198 mmHg. In series [4] (mouse, in vivo, po, 500 mg/kg), the “Number of deaths/number of survivals” value is given as 0/5. Further, in series [5], the inhibition at 100 µM worked out at 4%. In series [6], the Creatinine clearance is 0.36 mL/min, the Creatinine worked out at 1.8 mg/dL and the Urea nitrogen turned out to be 73 mg/dL.

For `CCCCC(=O)N(Cc1ccc(C(=O)O)cc1)c1cc(C(=O)N2CCOCC2)ccc1C(C)C` [Compound No. 372, 3-N-[[(4-carboxyphenyl)methyl]valeramido]-4-isopropylbenzoicacid morpholide], in series [1], the Average survival time was 7.6 weeks. In addition, the inhibition at 100 µM in series [2] (setting [7]) was determined as 0%. The same molecule displayed a Blood pressure in series [3] of 190 mmHg. Further, the “Number of deaths/number of survivals” value in series [4] (mouse, in vivo, po, 500 mg/kg) was 0/5. For the same molecule, in series [5], testing at 100 µM gave an inhibition of 2%. In series [6], this molecule yielded a Creatinine clearance of 0.36 mL/min, a Creatinine of 1.7 mg/dL and a Urea nitrogen of 72 mg/dL.

In the case of `CCCCC(=O)N(Cc1ccc(C(=O)O)cc1)c1cc(C(=O)N2CCOCC2)ccn1` [Compound No. 467, 2-N-[[(4-carboxyphenyl)methyl]valeramido]isonicotinic acid morpholide], the Average survival time in series [1] was 7.0 weeks. Further, the inhibition at 100 µM in series [2] (setting [7]) worked out at 0%. The molecule also yielded a Blood pressure in series [3] of 200 mmHg. For the same molecule, the “Number of deaths/number of survivals” value in series [4] (mouse, in vivo, po, 500 mg/kg) is on record as 0/5. Moreover, in series [5], the inhibition at 100 µM was 16%. In series [6], this molecule gave a Creatinine clearance of 0.25 mL/min, a Creatinine of 1.8 mg/dL and a Urea nitrogen of 74 mg/dL.

In general, IC50 refers to the concentration needed to halve the response being measured. In series [1], `CCCCCN(Cc1ccc(C(=O)O)cc1)c1cc(C(=O)N2CCOCC2)ccn1` [Compound No. 535, 2-[N-n-amyl-N-(4-carboxyphenyl)methyl]aminoisonicotinic acid morpholide] yielded an Average survival time of 7.6 weeks. Further, the inhibition at 100 µM in series [2] (setting [7]) stood at 0%. In addition, in series [3], the Blood pressure is recorded as 195 mmHg. For the same molecule, the “Number of deaths/number of survivals” value in series [4] (mouse, in vivo, po, 500 mg/kg) is reported as 0/5. Besides, the IC50 in series [5] (setting [8]) was 3.8 µM. In series [6], the Creatinine clearance is 0.38 mL/min, the Creatinine was determined as 1.5 mg/dL and the Urea nitrogen came to 72 mg/dL.

`CCCCC(=O)Nc1ccc(C(=O)N2CCOCC2)cc1NCc1ccc(-c2ccccc2-c2nnn[nH]2)cc1` [Compound No. 585, 3-[[2'-(1H-tetrazol-5-yl)biphenyl-4-yl]methylamino]-4-valeramidobenzoic acid morpholide] showed an Average survival time in series [1] of 7.3 weeks. The inhibition at 100 µM in series [2] (setting [7]) was found to be 0%. Moreover, the Blood pressure in series [3] worked out at 196 mmHg. For the same molecule, the “Number of deaths/number of survivals” value in series [4] (setting [9]) is 0/5. Further, the IC50 in series [5] (setting [8]) was 1.7 µM. In series [6], this molecule returned a Creatinine clearance of 0.35 mL/min, a Creatinine of 1.6 mg/dL and a Urea nitrogen of 72 mg/dL.

`CCCCC(=O)Nc1ccc(C(=O)N(CC)CC)cc1NCc1ccc(-c2ccccc2-c2nn[nH]n2)cc1` [Compound No. 586, [3-[[2'-(1H-tetrazol-5-yl)biphenyl-4-yl]methylamino]-4-valeramido]benzoic acid diethylamide] yielded an Average survival time in series [1] of 6.8 weeks. The inhibition at 100 µM in series [2] turned out to be 0%. Further, in series [3], the Blood pressure is listed as 198 mmHg. Further, the “Number of deaths/number of survivals” value in series [4] (setting [9]) was 0/5. In series [5], this molecule came in with a 50% inhibitory concentration (IC50) of 1.2 µM. In series [6], this molecule registered a Creatinine clearance of 0.33 mL/min, a Creatinine of 1.7 mg/dL and a Urea nitrogen of 76 mg/dL.

`CCCCC(=O)Nc1ccc(C(=O)N2CCOCC2)cc1OCc1ccc(-c2ccccc2-c2nnn[nH]2)cc1` [Compound No. 587, 3-[[2'-(1H-tetrazol-5-yl)biphenyl-4-yl]methyloxy]-4-valeramidobenzoic acid morpholide]: in series [1], the Average survival time stood at 7.0 weeks. For the same molecule, in series [2] (setting [7]), the inhibition at 100 µM worked out at 0%. The molecule also came in with a Blood pressure in series [3] of 201 mmHg. In addition, in series [4] (setting [9]), the “Number of deaths/number of survivals” value is given as 0/5. The IC50 in series [5] (setting [8]) is 7.9 µM. Moreover, in series [6], the Creatinine clearance was 0.34 mL/min, the Creatinine is 1.7 mg/dL and the Urea nitrogen came to 77 mg/dL.

`CCCCC(=O)N(Cc1ccc(-c2ccccc2-c2nn[nH]n2)cc1)c1cc(C(=O)N2CCOCC2)ccc1N(C)C` [Compound No. 591, 4-dimethylamino-3-N-[2'-[(1H-tetrazol-5-yl)biphenyl-4-yl]methyl]valeramidobenzoic acid morpholide]: in series [1], the Average survival time was 7.3 weeks. Moreover, in series [2] (setting [7]), the inhibition at 100 µM was 0%. In series [3], the Blood pressure was determined as 199 mmHg. Also, in series [4] (mouse, in vivo, po, 500 mg/kg), the “Number of deaths/number of survivals” value is reported as 0/5. For the same molecule, in series [5], the inhibition at 100 µM is 35%. In series [6], the Creatinine was 1.6 mg/dL and the Urea nitrogen turned out to be 76 mg/dL.
